Assay results from patent US10646594B2, “Deuterated metabolic water precursor for detecting and treating diseased tissue” (CASE WESTERN RESERVE UNIVERSITY, priority 2009, dated 2020).

What was measured:
[1] = system: malignant cells; conditions: Kushner et al. 1999; cited from earlier work
[2] = DMR measurement of deuterated glucose metabolism in Tenebrio molitor larvae; format: in vivo; conditions: starved larvae fed bran wetted with aqueous deuterated glucose, 2H spectrum
Protocol: (§1) DMR measurements (AQ 0.2s; TR 0.3s; NS 128; LB 30; 38s/spectrum) were performed at 9.4 T on a wide bore (89 mm) Bruker Avance microimager equipped with a multinuclear probe. A set of experiments was performed on three male mice (C57/BL6) and another set, on Tenebrio molitor larvae. Mouse 1 (25 g), was injected iv with 8.9 mg deuterated glucose (ISOTEC) dissolved in 0.4 ml saline solution; it was sacrificed after 1.5 hr and, after dissection, its whole body (except fur and skin) was placed in a 20 mm NMR tube for running the DMR spectrum (shown in FIG. 4, upper trace). Mouse 2, (32 g) injected ip with the same amount of glucose-d7 as mouse 1 was sacrificed after 3.5 hr, and yielded the spectrum seen in the same FIG. 4, second trace. Tenebrio molitor larvae were starved for several days, then placed in a 20 mm NMR tube together with food consisting of 0.4 g bran wetted with an aqueous solution of deuterated glucose.
In our approach, the excellent tracer quality of deuterium (natural abundance 0.015%) is combined with the fact that only two well separated peaks are to be measured; that of nascent metabolic water, and that of the aliphatic chain of fatty acids. Thus, in spite of their large line widths (100-230 Hz) due to the electric quadrupole moment and unfavorable correlation times, the spectra can be interpreted in a quantitative manner. […]

[3] = DMR measurement of deuterated glucose metabolism in mice; format: in vivo, mice (C57/BL6); conditions: mice injected iv or ip with 8.9 mg deuterated glucose, whole-body DMR spectrum
Protocol: as §1

[2H]O[2H] [D2O]
toxicity to malignant cells compared with normal animal cells [1]: more toxic to malignant cells than normal animal cells

[2H]C1(O)O[C@]([2H])(C([2H])([2H])O)[C@@]([2H])(O)[C@]([2H])(O)[C@@]1([2H])O (stereo partly drawn) [deuterated glucose, D-7 Glucose[1,2,3,4,5,6,6-2H7]]
incorporation of D-label into fat [2]: did not incorporate a visible amount of D-label into fat | metabolism of glucose into deuterated water ([2]; end of the experiment): all glucose was metabolized into deuterated water | consumption of deuterated glucose ([3]; sacrificed after 1.5 hr or 3.5 hr): all deuterated glucose was consumed by the mice | metabolic fate of deuterated glucose (metabolic water / fat) [3]: most of it provided protons for the formation of metabolic water, part of it was metabolized into fat
